In US20220081435A1, “ANDROGEN RECEPTOR PROTEIN DEGRADERS” (THE REGENTS OF THE UNIVERSITY OF MICHIGAN, priority 2019, published 2022):
Where two headings read alike, the source gives them in different places.

How the values were obtained:
[1] = system: AR-amplified prostate cancer cells; conditions: cited from earlier work
[2] = target: T1, VHL-ElonginBC complex (Homo sapiens, UniProt P40337); assay: Fluorescence-polarization competitive binding assay for VHL protein
T1 construct: His-TEV (cleaved yes); made in house; host or cells: E. coli BL21(DE3)
Procedure: Cloning and Purification of VHL-ElonginBC complex. […] The cells were induced overnight with 0.4 mM IPTG at 24° C. […] The cell suspension was lysed by sonication and debris removed via centrifugation. […] The protein complex was eluted in 20 mM Tris-HCl pH 7.0, 200 mM NaCl and 300 mM Imidazole, dialyzed into 20 mM Tris-HCl pH 7.0, 150 mM NaCl, and 0.01% bME and incubated with TEV protease overnight at 4° C. […] The flow through containing the VHL complex was diluted to 75 mM NaCl and applied to a HiTrap Q column (GE Healthcare). The sample was eluted with a salt gradient (0.075-1 M NaCl), concentrated and further purified on a Superdex S75 column (GE Healthcare) pre-equilibrated with 20 mM Bis-Tris 7.0, 150 mM NaCl and 1 mM DTT. Samples were aliquoted and stored at −80° C.
The IC50 and Ki values of compounds were determined in competitive binding experiments. […] IC50 values were determined by nonlinear regression fitting of the competition curves. Ki values of competitive inhibitors were obtained directly by nonlinear regression fitting, based upon the KD values of the probe and concentrations of the protein and probe in the competitive assays. All the FP competitive experiments were performed in duplicate in three independent experiments.

[3] = target: T2, AR protein (Homo sapiens, UniProt P10275, T878A); assay: AR protein degradation in LNCaP cells (Western blotting); type: cell-based; conditions: LNCaP; for Dmax at 0.1 µM / Dmax at 1 µM / Dmax at 10 µM: read-out: % AR protein degradation in LNCaP Cells
T2 construct: The percent AR protein degradation induced by these compounds at various concentrations in LNCaP cells; host or cells: LNCaP
T2 sequence (P10275 1-920 T878A): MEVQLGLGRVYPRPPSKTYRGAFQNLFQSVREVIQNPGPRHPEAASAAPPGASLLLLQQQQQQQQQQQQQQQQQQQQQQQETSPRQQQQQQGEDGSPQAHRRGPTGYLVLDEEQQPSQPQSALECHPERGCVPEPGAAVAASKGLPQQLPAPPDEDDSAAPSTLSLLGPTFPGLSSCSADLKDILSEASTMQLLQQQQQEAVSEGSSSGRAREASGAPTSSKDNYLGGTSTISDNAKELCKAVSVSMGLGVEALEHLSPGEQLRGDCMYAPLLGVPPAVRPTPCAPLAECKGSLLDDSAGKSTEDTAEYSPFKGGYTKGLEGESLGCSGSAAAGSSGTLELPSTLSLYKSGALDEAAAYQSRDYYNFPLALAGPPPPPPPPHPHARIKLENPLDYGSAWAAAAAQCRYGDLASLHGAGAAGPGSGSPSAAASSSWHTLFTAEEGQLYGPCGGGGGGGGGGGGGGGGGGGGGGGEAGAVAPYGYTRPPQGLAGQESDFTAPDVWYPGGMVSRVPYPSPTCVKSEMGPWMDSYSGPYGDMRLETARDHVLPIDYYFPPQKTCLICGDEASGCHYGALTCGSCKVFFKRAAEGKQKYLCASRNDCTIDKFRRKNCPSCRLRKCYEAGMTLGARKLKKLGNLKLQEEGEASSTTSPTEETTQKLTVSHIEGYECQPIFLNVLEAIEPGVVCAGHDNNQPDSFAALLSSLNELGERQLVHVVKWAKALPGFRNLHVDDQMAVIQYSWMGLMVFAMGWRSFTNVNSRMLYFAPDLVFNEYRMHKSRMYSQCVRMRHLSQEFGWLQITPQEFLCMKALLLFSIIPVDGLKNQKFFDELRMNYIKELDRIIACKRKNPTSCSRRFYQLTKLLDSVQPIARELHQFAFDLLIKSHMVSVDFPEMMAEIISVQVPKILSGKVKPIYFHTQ
Procedure, shortened: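 LNCaP cells were cultured with 10% FBS at 37° C and lysed in RIPA buffer after treatment. AR levels were measured by Western blot. Degradation percentage was quantified by densitometry as the background-corrected AR band relative to the loading control.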

[4] = treatment time 6 h, average of three independent experiments
[5] = 0.1 μM, treatment time 6 h, average of three independent experiments
[6] = 1 μM, treatment time 6 h, average of three independent experiments
[7] = 10 μM, treatment time 6 h, average of three independent experiments

| Compound | Dmax at 0.01 µM [3, 4] [%] | Dmax at 0.1 µM [3, 5] [%] | Dmax at 1 µM [3, 6] [%] | further results |
| --- | --- | --- | --- | --- |
| Cc1ncsc1-c1ccc(CNC(=O)[C@@H]2C[C@@H](O)CN2C(=O)[C@@H](NC(=O)COCCCCOc2ccc(-c3ccc(N4C(=S)N(c5ccc(C#N)c(C(F)(F)F)c5)C(=O)C4(C)C)cc3)cc2)C(C)(C)C)cc1 [ARCC-4, (4R)-1-((S)-2-(2-(4-((4′-(3-(4-cyano-3-(trifluoromethyl)phenyl)-5,5-dimethyl-4-oxo-2-thioxoimidazolidin-1-yl)-[1,1′-biphenyl]-4-yl)oxy)butoxy)acetamido)-3,3-dimethylbutanoyl)-4-hydroxy-N-(4-(4-methylthiazol-5-yl)benzyl)pyrrolidine-2-carboxamide] | – | – | – | Inducing apoptosis and inhibiting proliferation, compared with enzalutamide [1]: more potent and effective than enzalutamide |
| Cc1cc([C@H](C(=O)N2C[C@H](O)C[C@H]2C(=O)N[C@@H](CC(=O)NCCOCCOCCOCCNC(=O)c2ccc3c(c2)C(=O)OC32c3ccc(O)cc3Oc3cc(O)ccc32)c2ccc(-c3scnc3C)cc2)C(C)C)on1 [HXC78, (2S,4R)—N—((S)-1-(3′,6′-dihydroxy-3-oxo-3H-spiro[isobenzofuran-1,9′-xanthen]-5-yl)-17-(4-(4-methylthiazol-5-yl)phenyl)-1,15-dioxo-5,8,11-trioxa-2,14-diazaheptadecan-17-yl)-4-hydroxy-1-((R)-3-methyl-2-(3-methylisoxazol-5-yl)butanoyl)pyrrolidine-2-carboxamide, reference compound] | – | – | – | Kd ([2]; tracer binding to VHL complex (VHL, Elongin B, Elongin C)): 2.4 nM |
| CC(=O)N[C@H](C(=O)N1C[C@H](O)C[C@H]1C(=O)N[C@@H](C)c1ccc(-c2scnc2C)cc1)C(C)(C)C [VHL-b, (2S,4R)-1-((S)-2-acetamido-3,3-dimethylbutanoyl)-4-hydroxy-N—((S)-1-(4-(4-methylthiazol-5-yl)phenyl)ethyl)pyrrolidine-2-carboxamide] | – | – | – | IC50 ([2]; FP competition, VHL protein and fluorescent probe both 5 nM): 164 ± 13 nM |
| Cc1cc([C@H](C(=O)N2C[C@H](O)C[C@H]2C(=O)N[C@@H](CC(=O)N2CCC(N3CCC(C#Cc4ccc(Cc5c(C)nn(-c6ccc(C#N)c(Cl)c6)c5C)cc4)CC3)CC2)c2ccc(-c3scnc3C)cc2)C(C)C)on1 [Compound 33, (2S,4R)—N—((S)-3-(4-((4-((1-(3-Chloro-4-cyanophenyl)-3,5-dimethyl-1H-pyrazol-4-yl)methyl)phenyl)ethynyl)-[1,4′-bipiperidin]-1′-yl)-1-(4-(4-methylthiazol-5-yl)phenyl)-3-oxopropyl)-4-hydroxy-1-((R)-3-methyl-2-(3-methylisoxazol-5-yl)butanoyl)pyrrolidine-2-carboxamide] | – | – | – | Dmax at 0.1 µM ([3]; 6 h): 65%; Dmax at 1 µM ([3]; 6 h): 93%; Dmax at 10 µM ([3]; 6 h): 78% |
| Cc1ncsc1-c1ccc([C@H](C)NC(=O)[C@@H]2C[C@@H](O)CN2C(=O)[C@@H](NC(=O)CCCCN2CCN(c3ccc(C#Cc4ccc(N5C(=S)N(c6ccc(C#N)c(C(F)(F)F)c6)C(=O)C5(C)C)cc4)cn3)CC2)C(C)(C)C)cc1 [Compound 22, (2S,4R)-1-((S)-2-(5-(4-(5-((4-(3-(4-Cyano-3-(trifluoromethyl)phenyl)-5,5-dimethyl-4-oxo-2-thioxoimidazolidin-1-yl)phenyl)ethynyl)pyridin-2-yl)piperazin-1-yl)pentanamido)-3,3-dimethylbutanoyl)-4-hydroxy-N—((S)-1-(4-(4-methylthiazol-5-yl)phenyl)ethyl)pyrrolidine-2-carboxamide] | 28 | 48 | 89 | – |
| Cc1ncsc1-c1ccc(CNC(=O)C2C[C@@H](O)CN2C(=O)[C@@H](NC(=O)CCCCCCc2ccc(C#Cc3ccc(N4C(=S)N(c5ccc(C#N)c(C(F)(F)F)c5)C(=O)C4(C)C)cc3)cn2)C(C)(C)C)cc1 (stereo partly drawn) [Compound 19, (4R)-1-((S)-2-(7-(5-((4-(3-(4-Cyano-3-(trifluoromethyl)phenyl)-5,5-dimethyl-4-oxo-2-thioxoimidazolidin-1-yl)phenyl)ethynyl)pyridin-2-yl)heptanamido)-3,3-dimethylbutanoyl)-4-hydroxy-N-(4-(4-methylthiazol-5-yl)benzyl)pyrrolidine-2-carboxamide] | 30 | 63 | 96 | – |
| Cc1ncsc1-c1ccc(CNC(=O)C2C[C@@H](O)CN2C(=O)[C@@H](NC(=O)CCOCCOCCNC(=O)c2ccc(N3C(=S)N(c4ccc(C#N)c(C(F)(F)F)c4)C(=O)C3(C)C)cc2F)C(C)(C)C)cc1 (stereo partly drawn) [Compound 18, (4R)-1-((S)-13-(tert-Butyl)-1-(4-(3-(4-cyano-3-(trifluoromethyl)phenyl)-5,5-dimethyl-4-oxo-2-thioxoimidazolidin-1-yl)-2-fluorophenyl)-1,11-dioxo-5,8-dioxa-2,12-diazatetradecan-14-oyl)-4-hydroxy-N-(4-(4-methylthiazol-5-yl)benzyl)pyrrolidine-2-carboxamide] | – | 32 | 35 | Dmax at 10 µM [3, 7]: 40% |
| Cc1ncsc1-c1ccc(CNC(=O)C2C[C@@H](O)CN2C(=O)[C@@H](NC(=O)CCCN2CCN(c3ccc(C#Cc4ccc(N5C(=S)N(c6ccc(C#N)c(C(F)(F)F)c6)C(=O)C5(C)C)cc4)cn3)CC2)C(C)(C)C)cc1 (stereo partly drawn) [Compound 20, (4R)-1-((S)-2-(4-(4-(5-((4-(3-(4-Cyano-3-(trifluoromethyl)phenyl)-5,5-dimethyl-4-oxo-2-thioxoimidazolidin-1-yl)phenyl)ethynyl)pyridin-2-yl)piperazin-1-yl)butanamido)-3,3-dimethylbutanoyl)-4-hydroxy-N-(4-(4-methylthiazol-5-yl)benzyl)pyrrolidine-2-carboxamide] | – | 50 | 80 | Dmax at 10 µM [3, 7]: 80% |
| Cc1cc([C@H](C(=O)N2C[C@H](O)C[C@H]2C(=O)N[C@@H](CC(=O)N2CCC(N3CCC(C#Cc4ccc(N5C(=S)N(c6ccc(C#N)c(C(F)(F)F)c6)C(=O)C5(C)C)cc4)CC3)CC2)c2ccc(-c3scnc3C)cc2)C(C)C)on1 [Compound 29, (2S,4R)—N—((S)-3-(4-((4-(3-(4-Cyano-3-(trifluoromethyl)phenyl)-5,5-dimethyl-4-oxo-2-thioxoimidazolidin-1-yl)phenyl)ethynyl)-[1,4′-bipiperidin]-1′-yl)-1-(4-(4-methylthiazol-5-yl)phenyl)-3-oxopropyl)-4-hydroxy-1-((R)-3-methyl-2-(3-methylisoxazol-5-yl)butanoyl)pyrrolidine-2-carboxamide] | 20 | 81 | 97 | – |
